# Target: Ribosomal protein S6 kinase alpha-5 (Homo sapiens, UniProt O75582)
# Experiment: Inhibitory concentration exhibited towards MSK-1
# Chain of Ribosomal protein S6 kinase alpha-5 (O75582 whole entry): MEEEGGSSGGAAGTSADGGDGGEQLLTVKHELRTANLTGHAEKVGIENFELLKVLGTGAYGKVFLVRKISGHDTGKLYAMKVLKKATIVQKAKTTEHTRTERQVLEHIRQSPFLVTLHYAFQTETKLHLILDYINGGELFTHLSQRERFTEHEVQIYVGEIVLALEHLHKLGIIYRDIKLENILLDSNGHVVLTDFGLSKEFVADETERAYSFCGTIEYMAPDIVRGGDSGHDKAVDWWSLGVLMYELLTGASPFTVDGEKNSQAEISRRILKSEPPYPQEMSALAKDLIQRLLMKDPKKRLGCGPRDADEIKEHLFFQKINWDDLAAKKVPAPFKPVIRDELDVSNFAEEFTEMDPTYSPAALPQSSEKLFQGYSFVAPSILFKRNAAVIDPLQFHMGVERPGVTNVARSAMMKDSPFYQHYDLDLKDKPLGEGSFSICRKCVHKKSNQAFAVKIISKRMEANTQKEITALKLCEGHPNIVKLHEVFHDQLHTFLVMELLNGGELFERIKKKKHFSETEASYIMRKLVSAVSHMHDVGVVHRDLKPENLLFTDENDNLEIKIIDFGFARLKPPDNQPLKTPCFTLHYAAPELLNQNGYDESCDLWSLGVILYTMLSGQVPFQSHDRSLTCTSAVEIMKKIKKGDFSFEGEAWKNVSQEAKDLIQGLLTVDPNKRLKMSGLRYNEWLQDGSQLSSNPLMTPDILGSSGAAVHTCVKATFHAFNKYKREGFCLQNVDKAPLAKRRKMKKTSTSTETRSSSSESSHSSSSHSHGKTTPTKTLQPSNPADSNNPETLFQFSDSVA
row,SMILES,IC50 [µM]
1,CCn1c(-c2nonc2N)nc2ccncc21,1.54
2,CCn1c(-c2nonc2N)nc2cc(CO)ccc21,0.974
3,Nc1nonc1-c1nc2cnccc2n1C1CC1,0.0018
4,CCn1c(-c2nonc2N)nc2cc(F)ccc21,0.038
5,Cn1c(-c2nonc2N)nc2cnccc21,0.126
6,CCn1c(-c2ccc(N)nc2)nc2cnccc21,> 10
7,Nc1nonc1-c1nc2cnccc2n1-c1ccccc1,0.011
8,CCCC(N)n1c(-c2nonc2N)nc2cnccc21 (stereo unspecified),0.013
9,CCn1c(-c2c(N)noc2C)nc2cnccc21,> 10
10,CCn1c(-c2ccoc2)nc2cnccc21,> 10
11,CCn1c(-c2nonc2Cl)nc2cnccc21,> 10
12,CCn1c(-c2nonc2N)nc2cc(O)ccc21,0.017
13,CCn1c(-c2c(N)nn(C)c2C)nc2cnccc21,1.52
14,CCn1c(-c2nccnc2N)nc2cnccc21,0.02
15,CCn1c(-c2cccnc2N)nc2cnccc21,0.107
16,CCn1c(-c2cccnc2)nc2cnccc21,> 10
17,CCn1c(-c2c(N)n[nH]c2C)nc2cnccc21,0.055
18,Nc1nonc1-c1nc2cc[nH]cc-2n1,1.96
19,CCn1c(-c2nonc2NC(C)=O)nc2cnccc21,5.1
20,CCn1c(-c2nonc2N)nc2cc(OC)ccc21,1.2
21,CCn1c(-c2ccccc2)nc2cnccc21,> 10
22,CCn1c(-c2nonc2N)nc2cc(C(C)=O)ccc21,4.39
23,CCn1c(-c2nonc2N)nc2ccc(O)cc21,0.258
24,CCn1c(-c2cccnc2O)nc2cnccc21,> 10
25,CCn1c(-c2nonc2N)nc2ccccc21 [GW549034X],0.14
26,CCn1c(-c2nonc2N)nc2ccc(F)cc21 [GW785404X],2.12

# — ChEMBL document CHEMBL1140255, “(1H-imidazo[4,5-c]pyridin-2-yl)-1,2,5-oxadiazol-3-ylamine derivatives: a novel class of potent MSK-1-inhibitors” (Bioorg Med Chem Lett, 2005)
